Experimental findings from patent publication US6727245B2, “Heterobicyclic derivatives” (Fujisawa Pharmaceutical Co., Ltd., priority 1994, dated 2004) are described below.

Experiment [1] addresses U937 Phosphodiesterase IV (PDE IV). Description: Inhibition of U937 Phosphodiesterase IV (PDE IV). The format is biochemical. As to conditions: PDE IV enzyme preparation from U937 cell homogenate; [3H]-cAMP substrate; CI-930 (PDE III inhibitor) final 10 μM; 30° C. The procedure: (a) Inhibition of U937 Phosphodiesterase IV (PDE IV)
Harvested U937 was freezed in −80° C. and throwed to destroy the cell body. The pellet of destroyed cell was washed by Phosphate-buffered saline (PBS).
The washed cell pellet was homogenized with Dounce homogenizer (20 strokes) in homogenizing buffer (0.5% deoxycholate [DOC], 5 mM 2-mercaptoethanol, 1 μM leupeptin, 100 μM PMSF, 20 μM p-tosyl-L-lysine-chloromethyl ketone [TLCK] in PBS). The homogenate was centrifuged at 100,000 g×90 minutes (4° C.) and the supernatant containing PDE IV activity was dialyzed against dialysis buffer, which was the same component as homogenizing buffer without DOC. The dialyzed supernatant of homogenate was stored in freezer (−80° C.) as PDE IV enzyme preparation.
Enzyme preparation was diluted in assay buffer (10 mM Tris-HCl, 5 mM MgCl, 1 mM 2-Mercaptoethanol [pH 8.0]). In advance the rate of dilution was choosen every new lot of homogenizing preparation. […]
The reaction tube was preincubated in a water bath (30° C.) for 5 minutes, then 100 μl [^3H]-cAMP (37.0 MBq/ml [^3H]-cAMP: 4 μM cold cAMP=1:800) was added thereto. […] The mixture was centrifuged at 1000 rpm×5 minutes, and then 500 μl of the supernatant was added to 10 ml scintillation fluid in appropriate vial, vortexed, and counted for [^3H].
The inhibitory activity was calculated according to the following equation: [formula]

The test system of experiment [2] is TNF-α Production in Human Mononuclear Cells. Description: Inhibition on TNF-α Production in Human Mononuclear Cells. The format is cell-based. As to conditions: MNC from healthy volunteers, 1 μg/ml LPS (E. coli), 37° C. for 16 hours, TNF-α in supernatant by ELISA. The procedure:
(b) Inhibition on TNF-α Production in Human Mononuclear Cells
Blood was drawn from healthy volunteers with heparin. The mononuclear cell (MNC) fraction was obtained by gradient centrifugation (1800 rpm, 15 minutes), diluted with the same volume of RPMI-1640 culture medium, over Ficoll-Paque (Pharmacia LKB Biotechnology). MNC were washed twice with RPMI-1640. Then, MNC were resuspended in RPMI-1640 culture medium supplemented with 2 mM L-glutamine and 1% fetal bovine serum. MNC were incubated at 37° C. for 16 hours in 96-well micro culture plate at a concentration of […] with or without 1 μg/ml lipopolysaccharide (LPS) (from E. coli) and various amounts of test compound. At the end of incubation, the supernatant was obtained and its TNF-α active was measured by enzyme-linked immunosorbent assay (ELISA). ELISA was performed with TNF-α ELISA kit (Otsuka Pharmaceutical Co., Ltd.).

The IC50 is the concentration needed to halve the response being measured. The low end stands for inhibition by little substance, the high end for a need for much substance.

As for `O=C(Nc1cccc(-n2c(=O)c(Cc3ccccc3)nc3cccnc32)c1)Nc1cccc2ccccc12` [Test compound (a), 4-[3-[3-(1-Naphthyl)ureido]phenyl]-2-benzyl-3-oxo-3,4-dihydropyrido[2,3-b]pyrazine], the IC50 stood at 31 nM in experiment [1] and 56 nM in experiment [2].
